Measurements from article PMC11845477, “Exploring the principles behind antibiotics with limited resistance” (Nature Communications, 2025).

Experiments:
[1] = system: E. coli ATCC 25922 (SEN) and E. coli NCTC13846 (MDR); assay: microbe, parasite or virus in culture; assay type: cell-based, Escherichia coli; settings: for MIC of ancestor: ancestor strain; for MIC: Escherichia coli, across three biological replicates
Procedure: (§1) This study focused on multiple bacterial strains, as follows. For the FoR and ALE experiments, 2 strains per species were chosen: E. coli ATCC 25922, K. pneumoniae ATCC 10031, A. baumannii ATCC 17978, and P. aeruginosa ATCC BAA-3107 as sensitive (SEN) strains, and E. coli NCTC13846, K. pneumoniae ATCC 700603, A. baumannii ATCC BAA-1605 and P. aeruginosa LESB58 as multi-drug resistant (MDR) strains. Functional metagenomic screens were performed with E. coli ATCC 25922 and K. pneumoniae ATCC 10031 strains. To determine the dose-kill properties of the different antibiotics, an E. coli strain (ATCC 25922) expressing a yellow fluorescent protein (pZS2R, YFP, CHL^R) and a red fluorescent protein (pZS2R, mCherry, CHL^R) was used.
(§2) Unless otherwise indicated, cation-adjusted Mueller-Hinton Broth 2 (MHB, Millipore) medium was used throughout the study, except for SCH79797 (SCH).
(§3) A robotic liquid handling system was used to automatically prepare a 11 to 16-step serial dilution in 384-well microtiter plates (Greiner). A final concentration of 5 × 10^5 bacterial cells per mL were inoculated into each well containing 60 µL MHB medium. Bacterial cultures were incubated at 37 °C with continuous shaking (Infors shaker, 900 rpm with 3 mm throw) for 18 hours (2 replicates from each). Cell growth was monitored by measuring the optical density (OD600 values, using Biotek Synergy microplate reader). MIC was defined as the antibiotic concentration of complete growth inhibition (i.e., OD600 < 0.05). Relative MIC was calculated as follows:1 relativeMIC=MICevolved/MICancestor

[2] = system: E. coli ATCC 25922 (SEN) and E. coli NCTC13846 (MDR); assay: Adaptive laboratory evolution (ALE), relative MIC of evolved lines; assay type: cell-based, Escherichia coli; settings: for Relative MIC (log10): EC-SEN (Escherichia coli ATCC 25922)
Source text: Using the same set of bacterial strains, we initiated adaptive laboratory evolution with the aim to maximize the level of antibiotic resistance in the populations achieved during a longer, but fixed time period.
An established protocol for adaptive laboratory evolution[46],[73] was followed to propagate populations with the highest resistance levels. Starting with an antibiotic concentration that caused approximately 50% growth inhibition, ten parallel populations for each antibiotic-ancestor strain combination were grown for 72 hours at 37 °C with continuous shaking (300 RPM). MHB broth medium was used unless stated otherwise. After each incubation, 20 µl of each culture was transferred to four new wells containing fresh medium with increasing antibiotic concentrations (0.5×, 1×, 1.5×, and 2.5× the previous concentration) in a chessboard layout to monitor potential cross-contamination. Growth was monitored by measuring OD600 using a Biotek Synergy 2 microplate reader, and only populations grown in the highest drug concentration with an OD600 > 0.2 were transferred further.
as §3, with “relativeMIC=MICevolved/MICancestor […]” for “relativeMIC=MICevolved/MICancestor”
Supplementary Figure 4. Resistance levels following adaptive laboratory evolution across bacterial strains. The level of resistance was measured as the fold change in relative MIC between evolved and ancestral strains after ~60 days of adaptive laboratory evolution. Data are grouped by bacterial strain (A. baumannii (AB), E. coli (EC), K. pneumoniae (KP), and P. aeruginosa (PA)) and categorized as either multidrug-resistant (MDR) or sensitive (SEN). Each data point represents a laboratory evolved line, and boxplots show the median, first and third quartiles, with whiskers indicating the 5th and 95th percentiles.
Statistical analysis was performed using two-sided Dunn’s post-hoc test with Benjamini-Hochberg correction for multiple comparisons (****/ ***/ **/ * indicates p < 0.0001/ 0.001/ 0.01/ 0.05). For detailed information on antibiotic and bacterial species, see Supplementary Table 1. For mode of action groups, refer to Table 1. Source data are provided as a Source Data file.
(1 picture or pasted object on this page, not shown here)

[3] = system: P. aeruginosa ATCC BAA-3107 (SEN) and P. aeruginosa LESB58 (MDR); assay: microbe, parasite or virus in culture; assay type: cell-based, Pseudomonas aeruginosa; settings: for MIC of ancestor: ancestor strain; for MIC: Pseudomonas aeruginosa, across three biological replicates
Procedure: as §1, §2, §3

[4] = system: K. pneumoniae ATCC 10031 (SEN) and K. pneumoniae ATCC 700603 (MDR); assay: microbe, parasite or virus in culture; assay type: cell-based, Klebsiella pneumoniae; settings: for MIC of ancestor: ancestor strain; for MIC: Klebsiella pneumoniae, across three biological replicates
Procedure: as §1, §2, §3

[5] = Escherichia coli ATCC 25922 (EC-SEN)
[6] = Klebsiella pneumoniae ATCC 10031 (KP-SEN)

C[C@H]1c2cccc(O)c2C(=O)C2=C(O)[C@]3(O)C(=O)C(C(N)=O)=C(O)[C@@H](N(C)C)[C@@H]3[C@@H](O)[C@@H]21 [Doxycycline]
MIC of ancestor [1, 5]: 1 µg/mL
MIC of ancestor ([1]; Escherichia coli ATCC 25922 (EC-SEN), sheet fig 2a): 1 µg/mL
MIC [1, 5]: 1 µg/mL
MIC ([1]; Escherichia coli NCTC 13846 (EC-MDR)): 16 µg/mL
Relative MIC ([2]; EC-SEN (ATCC 25922), evolved line 1, MIC of evolved line / MIC of ancestor): 32
Relative MIC ([2]; EC-SEN (ATCC 25922), evolved line 2, MIC of evolved line / MIC of ancestor): 16
Relative MIC ([2]; EC-SEN (ATCC 25922), evolved line 3, MIC of evolved line / MIC of ancestor): 32
Relative MIC ([2]; EC-SEN (ATCC 25922), evolved line 4, MIC of evolved line / MIC of ancestor): 128
Relative MIC ([2]; EC-SEN (ATCC 25922), evolved line 6, MIC of evolved line / MIC of ancestor): 8
Relative MIC ([2]; EC-SEN (ATCC 25922), evolved line 7, MIC of evolved line / MIC of ancestor): 16
Relative MIC ([2]; EC-SEN (ATCC 25922), evolved line 8, MIC of evolved line / MIC of ancestor): 32
Relative MIC ([2]; EC-SEN (ATCC 25922), evolved line 9, MIC of evolved line / MIC of ancestor): 16
Relative MIC ([2]; EC-SEN (ATCC 25922), evolved line 10, MIC of evolved line / MIC of ancestor): 16
Relative MIC (log10) ([2]; evolved line 1 adapted to the named antibiotic): 1.505
Relative MIC (log10) ([2]; evolved line 2 adapted to the named antibiotic): 1.204
Relative MIC (log10) ([2]; evolved line 3 adapted to the named antibiotic): 1.505
Relative MIC (log10) ([2]; evolved line 8 adapted to the named antibiotic): 1.505
Relative MIC (log10) ([2]; evolved line 9 adapted to the named antibiotic): 1.204
Relative MIC ([2]; Escherichia coli ATCC 25922 (EC-SEN), evolved line 1): 32
Relative MIC ([2]; Escherichia coli ATCC 25922 (EC-SEN), evolved line 2): 16
Relative MIC ([2]; Escherichia coli ATCC 25922 (EC-SEN), evolved line 3): 32
Relative MIC ([2]; Escherichia coli ATCC 25922 (EC-SEN), evolved line 4): 128
Relative MIC ([2]; Escherichia coli ATCC 25922 (EC-SEN), evolved line 6): 8
Relative MIC ([2]; Escherichia coli ATCC 25922 (EC-SEN), evolved line 7): 16
Relative MIC ([2]; Escherichia coli ATCC 25922 (EC-SEN), evolved line 8): 32
Relative MIC ([2]; Escherichia coli ATCC 25922 (EC-SEN), evolved line 9): 16
Relative MIC ([2]; Escherichia coli ATCC 25922 (EC-SEN), evolved line 10): 16
MIC of ancestor ([3]; P. aeruginosa ATCC BAA 3107 (PA-SEN), sheet fig 2a): 4 µg/mL
MIC of ancestor ([3]; Pseudomonas aeruginosa ATCC BAA 3107 (PA-SEN)): 4 µg/mL
MIC ([3]; ATCCBAA3107, Pseudomonas aeruginosa ATCC BAA-3107 (PA-SEN)): 4 µg/mL
MIC ([3]; ATCCBAA3107, Pseudomonas aeruginosa LESB 58 (PA-MDR)): 32 µg/mL
MIC of ancestor [4, 6]: 0.25 µg/mL
MIC of ancestor ([4]; Klebsiella pneumoniae ATCC 10031 (KP-SEN), sheet fig 2a): 0.25 µg/mL
MIC [4, 6]: 0.25 µg/mL
MIC ([4]; Klebsiella pneumoniae ATCC 700603 (KP-MDR)): 32 µg/mL
